According to patent publication US8518989B2, “Prodrugs of short-chain fatty acids and treatment methods” (Georgia Health Sciences University Research Institute, Inc., priority 2005, dated 2013):

Assays:
MCF7, T47D, and ZR75.1 = assay: Apoptosis in breast tumor cell lines (FACS, sub-G1); type: cell-based, human
Method: (§1) Cell cycle analysis: Cells were fixed in 50% ethanol, treated with 0.1% sodium citrate, 1 mg/ml RNase A, and 50 μg/ml propidium iodide, and subjected to FACS (Becton Dickinson FacsCaliber) analysis. Cells with DNA content below Cl were scored as apoptotic population.

[1] = test system: SMCT1 and C/EBPδ expression; assay: Induction of SMCT1 and C/EBPδ expression in MCF7 cells (RT-PCR); type: cell-based, human; conditions: NaB 5 mM, TSA 1 μM, MAA 5 mM, VPA 2 mM, 18 or 24 h
Method: RT-PCR: Two μg of RNA was reverse transcribed using the Gene Amp PCR system (Roche) according to the manufacturer's instructions. Amplification of cDNA corresponding to mouse [NT] (sense) (SEQ ID NO:9), [NT] (anti-sense) (SEQ ID NO: 10)], mouse [NT] (sense) (SEQ ID NO:11), [NT] (anti-sense) (SEQ ID NO:12)], human [NT] (sense) (SEQ ID NO:13), [NT] (anti-sense) (SEQ ID NO:14)], and human C/EBPδ [[NT] (sense) (SEQ ID NO:15), [NT] (anti-sense) (SEQ ID NO:16)] was carried out using HPRT1 (hypoxanthine guanine phosphoribosyl transferase 1) as an internal control.

HMEC, HBL100, and MCF10A = assay: Apoptosis in non-transformed mammary epithelial cell lines (FACS, sub-G1); type: cell-based, human; conditions: normal mammary epithelial cells expressing SMCT1
Method: as §1

[2] = test system: all three isoforms of NOS; conditions: read-out: Km for arginine; cited from earlier work
HDAC = HDAC activity in a cell-free system with MCF7 cell lysate; type: biochemical, human
Method: Measurement of HDAC activity in a cell-free system: This was done using a commercially available assay kit (BioVision). MCF7 cell lysate was used as a source of HDAC activity. 50 μg of lysate protein was incubated with various monocarboxylates (1 mM), or trichostatin A (20 μM), and the reaction was initiated by the addition of HDAC substrate. The reaction was then terminated and the deacetylated product was measured according to the manufacturer's instructions. The activity is expressed in nmoles of deacetylated product formed per μg of MCF7 cell lysate protein per 30 min.

[3] = test system: MCF7 cells transfected with SMCT1 cDNA; assay: Colony formation assay in MCF7 cells transfected with SMCT1 cDNA; type: cell-based, human; conditions: SMCT1-expressing MCF7 cells

SMILES	Induction of apoptosis (MCF7, T47D, and ZR75.1)	Induction of SMCT1 and C/EBPδ expression [1]	other results
CCCC(CCC)C(=O)O [valproate, valproic acid]	do not have any effect on apoptosis	no or little activity	–
CC(/C=C/C(=O)NO)=C\[C@@H](C)C(=O)c1ccc(N(C)C)cc1 [trichostatin A]	cause apoptosis specifically in tumor cell lines	induce the expression of both genes	Induction of apoptosis (HMEC, HBL100, and MCF10A): does not induce apoptosis
N=C(N)NCCC[C@H](N)C(=O)O [arginine]	–	–	Km [2]: 3 to 30 µM
CC(O)C(=O)O (stereo not shown) [lactate]	–	–	HDAC inhibition (in words) (HDAC): does not; Effect on cell growth / apoptosis [3]: no effect on cell growth
COCC(=O)O [methoxyacetate, methoxyacetic acid]	do not have any effect on apoptosis	no or little activity	–
